Source: patent US20240025906A1 (NEURON23, INC., priority 2022, published 2024)
pIC50, pKd: −log10 of the molar value. Where two headings read alike, the source gives them in different places.

Legend:
[1] = tested on: JAK1/TYK2 pSTAT5 (Tyr694/699) in THP-1 cell line; assay: IFNa-stimulated JAK1/TYK2 pSTAT5 (Tyr694/699) inhibition cellular assay, AlphaLISA; assay type: cell-based; details: Homo sapiens, THP-1 cells, AlphaLISA (Assay B)
In short: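 THP-1 cells (2e4/well) in HBSS preincubated 1 h at 37° C. with compound (final 10000–0.04 nM, 8 points, 6-fold), then stimulated with IFNa (100 ng/mL stock) for 30 min before lysis. pSTAT5 (Tyr694/699) read by AlphaLISA at 615 nm; IC50 from four-parameter logistic fit with bottom fixed at 0 and Hill slope at −1.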

[2] = molecular target: T1, TYK2 JH2 (Homo sapiens, UniProt P29597); assay: TYK2 JH2 binding assay (KINOMEscan KdELECT competitive binding); details: TYK2 JH2 domain
T1 construct: purchased DiscoverX (KINOMEscan KdELECT service); host or cells: E. coli BL21-derived (T7 phage display) or HEK-293
T1 sequence (P29597 589-875 limits assumed): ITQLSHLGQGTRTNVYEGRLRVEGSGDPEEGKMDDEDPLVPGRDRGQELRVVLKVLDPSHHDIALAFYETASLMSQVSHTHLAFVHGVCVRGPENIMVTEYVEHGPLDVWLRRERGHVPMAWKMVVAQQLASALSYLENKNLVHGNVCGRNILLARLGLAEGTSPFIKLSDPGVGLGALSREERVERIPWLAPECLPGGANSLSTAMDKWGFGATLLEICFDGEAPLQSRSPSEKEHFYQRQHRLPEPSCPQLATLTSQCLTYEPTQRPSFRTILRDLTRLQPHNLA
In short: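 Kd values come from qPCR measurement of kinase retained on an immobilized-ligand resin after 1 h room-temperature competition with compound in an 11-point, 3-fold series.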

[3] = IFNa-stimulated pSTAT5 (Tyr694/699), read-out: Cellular_THP1_IFNa-pSTATS_TYK2
[4] = KINOMEscan KdELECT (Assay A), read-out: Biochemical TYK2_DiscoverX_JH2_BND_Kd
[5] = IFNa-stimulated, read-out: Cellular_THP1_IFNa-pSTATS_TYK2
[6] = IFNa-stimulated, read-out: Cellular THP1_IFNa-pSTATS_IC50
[7] = KINOMEscan KdELECT (Assay A), read-out: Biochemical TYK2_JH2_Kd
[8] = DiscoverX KINOMEscan KdELECT (Assay A), read-out: Biochemical TYK2_DiscoverX_JH2_BND_Kd

| pKd [2, 4] | pIC50 [1, 5] | pKd [2, 8] | Structure (SMILES) | other results |
| --- | --- | --- | --- | --- |
| ≥ 7.00 |  |  | CNc1ncc(-c2nc3cc(OC)ccc3o2)c2cc(NC(=O)[C@H]3C[C@@H]3C)ncc12 [Example 1060, (1S,2S)-N-(5-(5-methoxybenzo[d]oxazol-2-yl)-8-(methylamino)-2,7-naphthyridin-3-yl)-2-methylcyclopropane-1-carboxamide] | pIC50 [1, 3]: ≥ 6.30 |
|  | ≥ 6.30 | ≥ 7.00 | CNc1ncc(-c2nc3cc(N4CC(N(C)C)C4)ccc3o2)c2cc(NC(=O)C3CC3)ncc12 [Example 287, N-(5-(5-(3-(dimethylamino)azetidin-1-yl)benzo[d]oxazol-2-y1)-8-(methylamino)-2,7-naphthyridin-3-yl)cyclopropanecarboxamide] |  |
|  | ≥ 6.30 | ≥ 7.00 | CNc1ncc(-c2nc3cc(OC)ccc3o2)c2cc(NC(=O)[C@H]3C[C@@H]3C(C)(C)O)ncc12 (racemic) [Example 406, 2-(2-hydroxypropan-2-yl)-N-(5-(5-methoxybenzo[d]oxazol-2-yl)-8-(methylamino)-2,7-naphthyridin-3-yl)cyclopropane-1-carboxamide] |  |
| ≥ 7.00 |  |  | CNc1ncc(-c2nc3cc(NC(=O)CC4CC4)ccc3o2)c2cc(NC(=O)C3CC3)ncc12 [Example 1093, N-(5-(5-(2-cyclopropylacetamido)benzo[d]oxazol-2-yl)-8-(methylamino)-2,7-naphthyridin-3-yl)cyclopropanecarboxamide] | pIC50 [1, 3]: ≥ 6.30 |
|  | < 6.30 | ≥ 7.00 | CNc1ncc(-c2nc3cc(OC)ccc3o2)c2cc(NC(=O)[C@H]3C[C@H]3C(F)(F)F)ncc12 (single isomer, unassigned) [Example 398] |  |
| ≥ 7.00 | ≥ 6.30 |  | CNc1ncc(-c2nc3cc(N4CCOCC4=O)ccc3o2)c2cc(NC(=O)C3CC3)ncc12 [Example 929, N-(8-(methylamino)-5-(5-(3-oxomorpholino)benzo[d]oxazol-2-yl)-2,7-naphthyridin-3-yl)cyclopropanecarboxamide] |  |
|  | ≥ 6.30 | ≥ 7.00 | CNc1ncc(-c2nc3ccc(N4CC(OC)C4)cn3n2)c2cc(NC(=O)C3CC3)ncc12 [Example 476, N-(5-(6-(3-methoxyazetidin-1-yl)-[1,2,4]triazolo[1,5-a]pyridin-2-yl)-8-(methylamino)-2,7-naphthyridin-3-yl)cyclopropanecarboxamide] |  |
| ≥ 7.00 | ≥ 6.30 |  | CNc1ncc(-c2ccc(-c3cnnn3C)cc2)c2cc(NC(=O)C3CC3)ncc12 [Example 870, N-(5-(4-(1-methyl-1H-1,2,3-triazol-5-yl)phenyl)-8-(methylamino)-2,7-naphthyridin-3-yl)cyclopropanecarboxamide] |  |
|  | ≥ 6.30 | ≥ 7.00 | CNc1ncc(-c2nc3cc(OC)ccc3o2)c2cc(Nc3cccc(OC)n3)ncc12 [Example 379, 4-(5-methoxybenzo[d]oxazol-2-yl)-N^6-(6-methoxypyridin-2-yl)-N^1.methyl-2,7-naphthyridine-1,6-diamine] |  |
|  | ≥ 6.30 | ≥ 7.00 | CNc1ncc(-c2nc3cc(N4CCO[C@H](C(C)(F)F)C4)ccc3o2)c2cc(NC(=O)C3CC3)ncc12 (single isomer, unassigned) [Example 331] |  |
|  | ≥ 6.30 | ≥ 7.00 | CNc1ncc(-c2nc3cc(C(F)F)ccc3o2)c2cc(NC(=O)C3CC3)ncc12 [Example 244, N-(5-(5-(difluoromethyl)benzo[d]oxazol-2-yl)-8-(methylamino)-2,7-naphthyridin-3-yl)cyclopropanecarboxamide] |  |

The next lines start with the compound.

| Structure (SMILES) | pKd [2, 4] | pIC50 [1, 5] | pKd [2, 8] | other results |
| --- | --- | --- | --- | --- |
| CNc1ncc(C#Cc2ncccn2)c2cc(NC(=O)C3CC3)ncc12 [Example 950, N-(8-(methylamino)-5-(pyrimidin-2-ylethynyl)-2,7-naphthyridin-3-yl)cyclopropanecarboxamide] | ≥ 7.00 | ≥ 6.30 |  |  |
| CN=S(C)(=O)c1ccc(C#Cc2cnc(NC)c3cnc(NC(=O)C4CC4)cc23)cc1 (stereo not shown) [Example 1002, N-(5-((4-(N,S-dimethylsulfonimidoyl)phenyl)ethynyl)-8-(methylamino)-2,7-naphthyridin-3-yl)cyclopropanecarobxamide] | ≥ 7.00 |  |  | pIC50 [1, 3]: ≥ 6.30 |
| CNc1ncc(-c2ccccc2C#N)c2cc(NC(=O)C3CC3)ncc12 [Example 42, N-(5-(2-cyanophenyl)-8-(methylamino)-2,7-naphthyridin-3-yl)cyclopropanecarboxamide] |  |  |  | pIC50 [1, 6]: < 6.30; pKd [2, 7]: 6.00 to 7.00 |
| CNc1ncc(C#Cc2ccc(OC3CN(C(C)=O)C3)cn2)c2cc(NC(=O)C3(F)CC3)ncc12 [Example 736, N-(5-((5-((1-acetylazetidin-3-yl)oxy)pyridin-2-yl)ethynyl)-8-(methylamino)-2,7-naphthyridin-3-yl)-1-fluorocyclopropane-1-carboxamide] | ≥ 7.00 | ≥ 6.30 |  |  |
| CNc1nccc2cc(NC(=O)C3CC3)ncc12 [Example 2, N-(8-(methylamino)-2,7-naphthyridin-3-yl)cyclopropanecarboxamide] |  |  |  | pIC50 [1, 6]: < 6.30; pKd [2, 7]: 6.00 to 7.00 |
| CNc1ncc(C(C)C)c2cc(NC(=O)C3CC3)ncc12 [Example 74, N-(5-isopropyl-8-(methylamino)-2,7-naphthyridin-3-yl)cyclopropanecarboxamide] |  |  |  | pIC50 [1, 6]: < 6.30; pKd [2, 7]: ≥ 7.00 |
| CNc1ncc(C#Cc2ccc(OC)cn2)c2cc(NC(=O)[C@H]3C[C@H]3C(F)F)ncc12 (single isomer, unassigned) [Example 745] | ≥ 7.00 | ≥ 6.30 |  |  |
| CCNc1ncc(-c2nc3ccc(N4CC5CN(C)CC(C4)O5)cn3n2)c2cc(NC(=O)C3CC3)ncc12 [Example 581, N-(8-(ethylamino)-5-(6-(7-methyl-9-oxa-3,7-diazabicyclo[3.3.1]nonan-3-yl)-[1,2,4]triazolo[1,5-a]pyridin-2-yl)-2,7-naphthyridin-3-yl)cyclopropanecarboxamide] |  | ≥ 6.30 | ≥ 7.00 |  |
| CNc1ncc(-c2nc3c(F)cc(C)cn3n2)c2cc(NC(=O)C3CC3)ncc12 [Example 505, N-(5-(8-fluoro-6-methyl-[1,2,4]triazolo[1,5-a]pyridin-2-yl)-8-(methylamino)-2,7-naphthyridin-3-yl)cyclopropanecarboxamide] |  | ≥ 6.30 | ≥ 7.00 |  |
| CNc1ncc(C#Cc2ccc(OC)cn2)c2cc(NC(=O)C3CCOCC3)ncc12 [Example 1081, N-[5-[2-(5-methoxy-2-pyridyl)ethynyl]-8-(methylamino)-2,7-naphthyridin-3-yl]tetrahydropyran-4-carboxamide] | ≥ 7.00 |  |  | pIC50 [1, 3]: ≥ 6.30 |
| CNc1ncc(-c2nc3ccc(N4CCOCC4)cn3n2)c2cc(NC(=O)C3(F)CC3)nnc12 [Example 886, 1-fluoro-N-(8-(methylamino)-5-(6-morpholino-[1,2,4]triazolo[1,5-a]pyridin-2-yl)pyrido[3,4-c]pyridazin-3-yl)cyclopropane-1-carboxamide] | ≥ 7.00 | ≥ 6.30 |  |  |
| CNc1ncc(C#Cc2ccc(CN3CCOCC3)cn2)c2cc(NC(=O)C3CC3)ncc12 [Example 728, N-(8-(methylamino)-5-((5-(morpholinomethyl)pyridin-2-yl)ethynyl)-2,7-naphthyridin-3-yl)cyclopropanecarboxamide] | ≥ 7.00 | ≥ 6.30 |  |  |
| CNc1ncc(C#Cc2ccc(OC[C@@H]3COCCO3)cc2)c2cc(NC(=O)C3CC3)ncc12 [Example 768, (S)—N-(5-((4-((1,4-dioxan-2-yl)methoxy)phenyl)ethynyl)-8-(methylamino)-2,7-naphthyridin-3-yl)cyclopropanecarboxamide] | ≥ 7.00 | ≥ 6.30 |  |  |
| CNc1ncc(C#Cc2ccc(N3CCOCC3)cc2F)c2cc(NC(=O)C3CC3)ncc12 [Example 969, N-[5-[2-(2-fluoro-4-morpholino-phenyl)ethynyl]-8-(methylamino)-2,7-naphthyridin-3-yl]cyclopropanecarboxamide] | ≥ 7.00 | ≥ 6.30 |  |  |
| CNc1ncc(C#Cc2ccc(SC)cc2)c2cc(NC(=O)C3CC3)ncc12 [Example 650, N-(8-(methylamino)-5-((4-(methylthio)phenyl)ethynyl)-2,7-naphthyridin-3-yl)cyclopropanecarboxamide] | ≥ 7.00 | ≥ 6.30 |  |  |
| CNc1ncc(-c2nc3ccc(N4CCO[C@H](C)C4)cn3n2)c2cc(NC(=O)NC3CC3)ncc12 [Example 552, (R)-1-cyclopropyl-3-(8-(methylamino)-5-(6-(2-methylmorpholino)-[1,2,4]triazolo[1,5-a]pyridin-2-yl)-2,7-naphthyridin-3-yl)urea] |  | ≥ 6.30 | ≥ 7.00 |  |
| CNc1ncc(-c2ccccc2)c2cc(NC(=O)C3CC3(F)F)ncc12 (stereo not shown) [Example 105, 2,2-difluoro-N-(8-(methylamino)-5-phenyl-2,7-naphthyridin-3-yl)cyclopropane-1-carboxamide] |  |  |  | pIC50 [1, 6]: < 6.30; pKd [2, 7]: ≥ 7.00 |
| CNc1ncc(-c2nc3ccc(N4CC(C)(O)C4)cn3n2)c2cc(NC(=O)C3CC3)ncc12 [Example 1037] | ≥ 7.00 |  |  | pIC50 [1, 3]: ≥ 6.30 |
